Experimental data: patent publication US20230073781A1, “Systemic administration of peptides for the treatment of spinal cord injury and/or for remyelination” (AXOLTIS PHARMA, priority 2019, published 2023)
Where a SMILES comes first, the peptide text is derived from it. Bridges are numbered along the chain shown (N, C = ends).

Key:
[1] = Preliminary PK study in rat; type: in vivo; conditions: slow bolus IV injection of 49 mg/kg of NX210
Experimental: Therefore, NX210 PK in animals is followed by the measurement of its cyclic form NX218. First a preliminary PK study in rat was performed in order to validate the method for detecting NX218 in plasma then translated to monkey by performing a more robust PK study with repeated experiments. All PK studies were performed with NaCl 0.9% as vehicle.

[2] = In vitro conversion in rat plasma; type: in vitro ADME; conditions: preliminary

N=C(N)NCCC[C@@H]1NC(=O)[C@H](CO)NC(=O)[C@@H](NC(=O)[C@H](CO)NC(=O)[C@H](CO)NC(=O)[C@H](Cc2c[nH]c3ccccc23)NC(=O)CNC(=O)[C@H](CO)NC(=O)[C@@H](N)Cc2c[nH]c3ccccc23)CSSC[C@@H](C(=O)NCC(=O)O)NC(=O)[C@H](CO)NC1=O [NX218] (H-WSGWSSCSRSCG-OH; disulfide 7-11)
plasma concentration of NX218 over time [1]: impossible to quantify from 3 hours

N=C(N)NCCC[C@H](NC(=O)[C@H](CO)NC(=O)[C@H](CS)NC(=O)[C@H](CO)NC(=O)[C@H](CO)NC(=O)[C@H](Cc1c[nH]c2ccccc12)NC(=O)CNC(=O)[C@H](CO)NC(=O)[C@@H](N)Cc1c[nH]c2ccccc12)C(=O)N[C@@H](CO)C(=O)N[C@@H](CS)C(=O)NCC(=O)O [NX210, W-S-G-W-S-S-C-S-R-S-C-G] (H-WSGWSSCSRSCG-OH)
conversion by oxidation in rat plasma [2]: rapidly converted into NX218
